Where “and” joins values, the source holds several entries; their conditions need not be identical. Identical values can stand only once. Each block holds one molecule with its values, some of them ahead of it.
Columns and labels:
[1] = cited from earlier work
Source text: Comparison of rate constants for drug transfer between different compartments is hampered by absolute radioactivity amounts being relatively small in tumors compared to organs (due to volume differences between these compartments). […] Though differences are small, these might be caused by different treatment intervals (two-week instead of six-week interval) for most patients.

[2] = Population pharmacokinetic model from post-administration SPECT/CT data; assay type: in vivo, human
[3] = cited from earlier work; remark: listed apart in the source
Source text: Though differences are small, these might be caused by different treatment intervals (two-week instead of six-week interval) for most patients.

[4] = tested on: serum prostate-specific antigen (PSA); experiment: Tumor exposure (AUC) threshold for PSA response, linear regression; assay type: in vivo, human; settings: Bayesian estimated tumor AUC of first two cycles
Source text: As an exploratory analysis, the final population PKPD model was used to assess a potential tumor exposure threshold required to achieve treatment response. The individually (Bayesian) estimated area under the curve (AUC) based on the first two treatment cycles was related to the change in PSA (%) for each patient. Since PSA is a continuous response measure and there is no defined moment to determine response, two endpoints for response were considered: nadir PSA and the last measured PSA value after the first two treatment cycles. A linear regression was performed to assess the relationship and was subsequently used to define tumor AUC thresholds required to achieve treatment response (≥ 50% decrease in PSA). Formal statistical testing was not possible, since individual (Bayesian) estimates of tumor exposure cannot be considered independent variables.

[5] = tested on: serum prostate-specific antigen (PSA); experiment: Population PKPD model of PSA dynamics after therapy; assay type: in vivo, human; settings: estimate (RSE%)
Source text: Data from patients treated in our hospital with [^177Lu]Lu-PSMA-I&T between September 2019 and January 2023 were collected for population PK model development. This retrospective data collection was approved by the Institutional Review Board of the Netherlands Cancer Institute (IRBd21288). Baseline patient characteristics were collected, such as age, body weight, height and serum creatinine clearance. In addition, individual PSA concentrations were collected and used as input for the PD model. As pre-treatment PSA value, only the last observation prior to [^177Lu]Lu-PSMA-I&T treatment (< 6 weeks) was included in the analysis, to avoid taking into account PSA changes due to other previous treatments. For the same reason, PSA observations after the last [^177Lu]Lu-PSMA-I&T administration were collected up to start of a new treatment.
A sequential modelling approach was used for PKPD model development, where an additional compartment was considered to describe PSA concentrations over time. Baseline PSA concentrations were estimated as a typical population value with an estimated IIV on this population baseline value. […] For Edrug, a linear function, an Emax function and a sigmoid Emax model were evaluated (see Eqs. 9–11, respectively).9 Edrug=kD∗Ctumor 10 Edrug=EMAX∗Ctumor/EC50+Ctumor 11 Edrug=EMAX∗Ctumorγ/EC50γ+Ctumorγ where kD is a drug-induced effect, Ctumor is the estimated concentration in the tumor compartment (taking into account radioactive decay), EMAX is the maximal drug induced effect of [^177Lu]Lu-PSMA-I&T on PSA, EC50 is the [^177Lu]Lu-PSMA-I&T concentration at which half of the maximum drug-induced effect on PSA occurs and γ is a hill coefficient (that was both estimated and fixed during model development).
Therefore, a delay of the PD effect after administration of [^177Lu]Lu-PSMA-I&T (Edelayed) was evaluated using an effect compartment with a linear drug effect (Eq. 8) on the PSA compartment. This delayed effect was assessed both solely as well as additional to the direct effect (Edrug). […]

[6] = fraction of tumor uptake rate in cycle 1, estimate (RSE%)
[7] = population PK model, covariate exponent, estimate (RSE%)
[8] = population PK model, estimate (RSE%)

Compound: O=C(O)CC[C@H](NC(=O)N[C@@H](CCCCNC(=O)[C@H](Cc1ccc2ccccc2c1)NC(=O)[C@H]1CC[C@H](CNC(=O)CN2CCN(CC(=O)O)CCN(CC(=O)O)CCN(CC(=O)O)CC2)CC1)C(=O)O)C(=O)O [[^177Lu]Lu-PSMA-617, metal not drawn]
Initial volume of distribution [1]: 22 L
Reported clearance [1]: 2.04 L/h
Excretion rate ([1]; population PK model): 0.288 h⁻¹

Tumor uptake rate in cycle 2 compared to cycle 1 ([2]; all 76 patients): 73% and 73.1%
Tumor uptake rate in cycle 3 compared to cycle 1 ([2]; all 76 patients): 50% and 49.8%
Tumor uptake rate in cycle 4–7 compared to cycle 1 ([2]; all 76 patients): 44% and 43.6%
Salivary gland uptake in cycle three compared to cycle one ([2]; cycle effect tested on k12): 98.1%
Salivary gland uptake in cycle two compared to cycle one ([2]; cycle effect tested on k12): 84.6%
Estimated half-life, tumors ([2]; decay-corrected data): ~46 h
Cycle 2 on k14 (fractional change) [2, 6]: 0.731 (8.1%)
Cycle 3 on k14 (fractional change) [2, 6]: 0.498 (11.3%)
Cycle 4–7 on k14 (fractional change) [2, 6]: 0.436 (11.6%)
Increase of tumor uptake rate with a two-times higher tumor volume ([2]; from power covariate 1.08 on k14): 2.11 fold
Tumor uptake rate in cycle 2 compared to cycle 1, excluding '4 × 6' patients ([2]; only '2 × 2 – repeated after twelve weeks' scheme): 82.9%
k10 (renal excretion rate constant from central compartment) ([2]; population PK model, 76 mCRPC patients, ~7.4 GBq per cycle, SPECT/CT, estimate (RSE%)): 0.253 (5.2%) h^−1
k12 (uptake rate central to salivary glands) ([2]; population PK model, 76 mCRPC patients, estimate (RSE%)): 0.0105 (9.2%) h^−1
Renal clearance ([2]; population PK model, mCRPC patients): 2.61 L/h
Tumor volume on k12 (power covariate function) [2, 7]: 0.0910 (30.0%)
Tumor volume on k14 (power covariate function) [2, 7]: 1.08 (7.5%)
k13 (uptake rate central to kidneys) [2, 8]: 0.0321 (6.9%) h^−1
k14 (uptake rate central to tumors) [2, 8]: 0.00967 (9.9%) h^−1
k15 (central to remaining tissue) [2, 8]: 0.275 (6.8%) h^−1
k21 (salivary glands to central) [2, 8]: 0.0629 (6.3%) h^−1
k31 (kidneys to central) [2, 8]: 0.0625 (5.4%) h^−1
k41 (tumors to central) [2, 8]: 0.0150 (3.4%) h^−1
k51 (remaining tissue to central) [2, 8]: 0.0247 (6.5%) h^−1
Estimated half-life, organs-at-risk ([2]; salivary glands and kidneys, decay-corrected data): approximately 11 h
BMAX compartment 2 (maximum binding capacity, salivary glands) ([2]; saturable uptake into salivary glands, estimate (RSE%)): 134 (15.5%) MBq
Compound: O=C([O-])CC[C@H](NC(=O)N[C@@H](CCCCNC(=O)CCCCCCC(=O)NCCCC[C@@H](NC(=O)[C@@H](Cc1ccccc1)NC(=O)[C@@H](Cc1ccc(O)c(I)c1)NC(=O)CC[C@H](C(=O)[O-])N1CCN(CC(=O)[O-])CCN(CC(=O)[O-])CCN(CC(=O)[O-])CC1)C(=O)[O-])C(=O)[O-])C(=O)[O-].[177Lu+3].[H+].[H+].[H+].[H+].[H+] [[^177Lu]Lu-PSMA-I&T]
Average tumor absorbed dose, fourth cycle relative to first cycle [3]: 68%
Average tumor absorbed dose, second cycle relative to first cycle [3]: 94%
Average tumor absorbed dose, third cycle relative to first cycle [3]: 77%
Average tumor absorbed dose, first cycle ([3]; n = 5–15 patients per cycle): 3.5 Gy/GBq
Average tumor absorbed dose, fourth cycle ([3]; n = 5–15 patients per cycle): 2.4 Gy/GBq
Average tumor absorbed dose, second cycle ([3]; n = 5–15 patients per cycle): 3.3 Gy/GBq
Average tumor absorbed dose, third cycle ([3]; n = 5–15 patients per cycle): 2.7 Gy/GBq
Threshold tumor AUC for ≥ 50% decrease in PSA, last measured PSA after first two cycles [4]: 1188 MBq·h/mL
Threshold tumor AUC for ≥ 50% decrease in PSA, nadir PSA as outcome [4]: 709.5 MBq·h/mL
Rate constant effect compartment (ke0) ([5]; first-order delay to effect compartment): 0.00128 (13.1%) h^−1
Delayed drug-induced effect (kD, delay) ([5]; linear effect from effect compartment on PSA): 0.0000328 (17.4%) L·day^−1·MBq^−1
Direct drug-induced effect (kD, direct) ([5]; linear effect of tumor concentration on PSA elimination): 0.00335 (40.1%) L·day^−1·GBq^−1

Reference: paper PMC11043318, “Quantification of biochemical PSA dynamics after radioligand therapy with [^177Lu]Lu-PSMA-I&T using a population pharmacokinetic/pharmacodynamic model” (EJNMMI Physics, 2024)
